Measurements: patent publication US5932709A (University of Michigan, priority 1997, dated 1999)

Legend:
[1] = system: MX-1 human breast tumor xenograft; experiment: in vivo
Source text: (§1) For all the models, the vehicle used to deliver the analog of interest was isotonic saline.
(§2) For the MX-1 human breast tumor xenograft models, the following procedure was used. Nude mice are implanted s.c. by trocar with fragments of MX-1 mammary carcinomas harvested from s.c. growing MX-1 tumors in nude mice hosts. When tumors are approximately 5 mm×5 mm in size (usually about ten days after inoculation), the animals are pair-matched into treatment and control groups. Each group contains ten tumored mice, each of which is ear-tagged and followed individually throughout the experiment. The administration of drugs or vehicle begins the day the animals are pair-matched (day 1). The doses, route of drug administration and schedule are selected as appropriate for the study in question. If the MTD dose of an agent is not known, it is determined in an initial dosing experiment in non-tumored mice. In a typical experiment, drugs are given at their MTD and 1/2 MTD doses i.p. on a daily×5 schedule.
(§3) The experiment is usually terminated when control tumors reach a size of 2-3 g. Mice are weighed twice weekly, and tumor measurements are taken by calipers twice weekly, starting on day 1. These tumor measurements are converted to mg tumor weight by a well known formula, and from these calculated tumor weights the termination date can be determined. Upon termination, all mice are weighed, sacrificed, and their tumors excised. Tumors are weighed, and the mean tumor weight per group is calculated.
(§4) Some drugs cause tumor shrinkage in the MX-1 model. With these agents, the final weight of a given tumor is subtracted from its own weight at the start of the treatment on day 1. This difference divided by the initial tumor weight is the % shrinkage. A mean % tumor shrinkage can be calculated from data from the mice in a group that experienced MX-1 regressions. If the tumor completely disappears in a mouse, this is considered a complete regression or complete tumor shrinkage. If desired, mice with partial or total tumor regressions can be kept alive past the termination date to see whether they live to become long term, tumor-free survivors.
(§5) Note that in the following table the abbreviation SR refers to tumor shrinkage rate, while those entries followed by a superscripted `2` are tumor growth inhibition rates, not tumor shrinkage rates.

[2] = system: human lung tumor xenograft; experiment: Human lung tumor xenograft model; format: in vivo, human tumor in nude mice
Source text: (§6) For the human lung and prostate tumor xenograft models the following procedure was used. Nude mice were implanted s.c. by trocar with fragments of human lung or prostate carcinomas harvested from s.c. growing tumors in nude mice hosts. When tumors were approximately 5 mm×5 mm in size (usually ten to fourteen days after inoculation), the animals were pair-matched into treatment and control groups. Each group contained 10 tumored mice, each of which was ear-tagged and followed individually throughout the experiment. […] The doses, route of drug administration and schedule were selected as appropriate for the study in question. (See above protocol). […] Topotecan was run as a positive control at its MTD dose on a daily×5 and a daily×1 schedule. Male nude mice were used for both prostate studies.
(§7) Mice are weighed twice weekly, and tumor measurements were taken by calipers twice weekly, starting on day 1.
(§8) Some drugs cause tumor shrinkage in the human tumor xenograft models. […] A mean % tumor shrinkage can be calculated from the data from the mice in a group that experienced tumor regressions.

[3] = system: human prostate tumor xenograft; experiment: Human prostate tumor xenograft model; format: in vivo, human tumor in nude mice
Source text: as §6, §7, §8

[4] = Murine B16 melanoma model in vivo; set-up: species or system mouse (B6D2F1); details: mouse, in vivo, ip; i.p. daily×5
Method: 1) Murine B16 Melanoma Model
(§9) For the B16 melanoma model, the following procedure was used. B6D2F1 mice receive i.p. inocula of B16 murine melanoma brei prepared from B16 tumors growing s.c. in mice (day 0). […] If dosing information for agents is not available, the maximum tolerated dose (MTD) is determined in initial dose finding experiments in non-tumored mice.
(§10) The mean survival times of all groups are calculated, and results are expressed as mean survival of treated mice/mean survival of control mice (T/C)×100%. A T/C value of 150 means that the mice in the treated group lived 50% longer than those of the control group; this is sometimes referred to as the increase in life span or ILS value.
Mice that survive for 60 days are considered long-term survivors, or cures, in the B16 model. The universally accepted cut-off for activity in this model, which has been for years by the National Cancer Institute, is T/C=125. Conventional use of B16 over the years has set the following levels of activity: T/C<125, no activity, T/C=125-150, weak activity; T/C=150-200, modest activity; T/C=200-300, high activity; T/C>300, with long term survivors; excellent, curative activity.

[5] = Murine P388 leukemia model in vivo; set-up: species or system mouse (B6D2F1); details: mouse, in vivo, ip; i.p. daily×5
Method: as §9, §10
For the P388 leukemia model, the procedure followed is exactly the same as the aforementioned B16 model. The tumor inoculum is prepared by removing ascited fluid containing P388 cells from tumored B6D2F1 mice, centrifuging the cells, and then resuspending the leukemia cells in saline. Mice receive 1×10^6 P388 cells i.p. on day 0.

in vivo = details: mouse, in vivo, ip
Source text: as §1, §2, §3, §4, §5

With `CC[C@@]1(O)C(=O)OCc2c1cc1n(c2=O)Cc2c-1nc1ccccc1c2CO[C@@H]1C=C[C@H](O)[C@@H](CO)O1` [HAR7, 7-[2,3-dideoxy-α-D-erythro-hex-2-enopyranosyl]-oxymethylcamptothecin] the “mice with tumor shrinkage” value ([1]; 20 mg/kg) was 10, the “SR(%) (Tumor Shrinkage Rate)” value ([1]; 20 mg/kg i.p. daily×5) was 98% and the “Shrinkage (animals)” value ([1]; 20 mg/kg i.p. daily×5) was 10/10. For the same compound, the “Tox Deaths” value ([1]; 20 mg/kg i.p. daily×5) was 0/10, the “ΔWeight (%)” value ([1]; 20 mg/kg i.p. daily×5) was -0.05% and the weight loss ([1]; 20 mg/kg, in words) was “virtually no weight loss”. For the same compound, the “SR(%) (Tumor Shrinkage Rate)” value ([1]; 40 mg/kg i.p. daily×5) was 98%, the “Shrinkage (animals)” value ([1]; 40 mg/kg i.p. daily×5) was 5/10 and the “Tox Deaths” value ([1]; 40 mg/kg i.p. daily×5) was 4/10. For the same compound, the “ΔWeight (%)” value ([1]; 40 mg/kg i.p. daily×5) was -25.0%, the toxicity ([1]; 40 mg/kg, in words) was “produced lethality” and the “antitumor activity vs. MX-1” value ([1]; in words) was “almost equivalent, outstanding activity”. The “complete disappearance of tumors (animals)” value ([2]; 30 mg/kg daily×5) was 2, the Deaths ([2]; 30 mg/kg × 5 days) was 0/10 and the “Shrink (% Tumor Shrinkage Rate)” value ([2]; 30 mg/kg × 5 days) was 100%. For the same compound, the “Shrink (number of animals)” value ([2]; 30 mg/kg × 5 days) was 2/10, the “TGI (% Tumor Growth Inhibition Rate)” value ([2]; 30 mg/kg × 5 days) was 67% and the “TGI (number of animals)” value ([2]; 30 mg/kg × 5 days) was 8/10. For the same compound, the Deaths ([2]; 200 mg single ds) was 1/10, the “Shrink (% Tumor Shrinkage Rate)” value ([2]; 200 mg single ds) was 67% and the “Shrink (number of animals)” value ([2]; 200 mg single ds) was 2/10. For the same compound, the “TGI (% Tumor Growth Inhibition Rate)” value ([2]; 200 mg single ds) was 64%, the “TGI (number of animals)” value ([2]; 200 mg single ds) was 7/10 and the “activity against lung xenograft model” value ([2]; in words) was “outstanding activity”. For the same compound, the “efficacy, single dose” value ([2]; single dose, in words) was “significant tumor growth inhibition”, the Deaths ([3]; 30 mg/kg × 5 days) was 0/10 and the “Shrink (number of animals)” value ([3]; 30 mg/kg × 5 days) was 0/10. The “TGI (% Tumor Growth Inhibition Rate)” value ([3]; 30 mg/kg × 5 days) was 77%, the “TGI (number of animals)” value ([3]; 30 mg/kg × 5 days) was 10/10 and the Deaths ([3]; 100 mg single ds) was 0/10. For the same compound, the “Shrink (% Tumor Shrinkage Rate)” value ([3]; 100 mg single ds) was 20%, the “Shrink (number of animals)” value ([3]; 100 mg single ds) was 1/10 and the “TGI (% Tumor Growth Inhibition Rate)” value ([3]; 100 mg single ds) was 51%. For the same compound, the “TGI (number of animals)” value ([3]; 100 mg single ds) was 9/10, the Deaths ([3]; 200 mg single ds) was 0/10 and the “Shrink (number of animals)” value ([3]; 200 mg single ds) was 0/10. For the same compound, the “TGI (% Tumor Growth Inhibition Rate)” value ([3]; 200 mg single ds) was 80%, the “TGI (number of animals)” value ([3]; 200 mg single ds) was 10/10 and the “activity against prostate xenograft model” value ([3]; in words) was “outstanding activity”. The “efficacy, single dose” value ([3]; single dose, in words) was “significant tumor growth inhibition”.

`CC[C@@]1(O)C(=O)OCc2c1cc1n(c2=O)Cc2c-1nc1ccccc1c2CO[C@@H]1C=C[C@H](O[C@H]2O[C@H](CO)[C@@H](O)[C@H](O)[C@H]2O)[C@@H](CO)O1` [HAR6, 7-[4-O-(α-D-glucopyranosyl)-2,3-dideoxy-α-D-erythro-hex-2-enopyranosyl]-oxymethylcamptothecin] showed an MTD [4] of 100 mg/kg, an MTD [5] of 100 mg/kg and an MTD (in vivo) of 100 mg/kg. The “mice with growth inhibition” value ([1]; 50 mg/kg) was 2, the “mice with tumor shrinkage” value ([1]; 50 mg/kg) was 8 and the “SR(%) (Tumor Shrinkage Rate)” value ([1]; 50 mg/kg i.p. daily×5) was 81%. For the same compound, the “Shrinkage (animals)” value ([1]; 50 mg/kg i.p. daily×5) was 8/10, the “Tox Deaths” value ([1]; 50 mg/kg i.p. daily×5) was 0/10 and the “ΔWeight (%)” value ([1]; 50 mg/kg i.p. daily×5) was “+2.5%”. For the same compound, the tumor growth inhibition ([1]; 50 mg/kg, remaining 2 animals) was 82%, the body weight loss ([1]; 100 mg/kg) was “approximately 19%” and the drug-related deaths ([1]; 100 mg/kg) was “the tenth animal died of toxicity and one”. For the same compound, the “mice with tumor shrinkage” value ([1]; 100 mg/kg) was 9, the “SR(%) (Tumor Shrinkage Rate)” value ([1]; 100 mg/kg i.p. daily×5) was 94% and the “Shrinkage (animals)” value ([1]; 100 mg/kg i.p. daily×5) was 9/10. For the same compound, the “Tox Deaths” value ([1]; 100 mg/kg i.p. daily×5) was 1/10, the “ΔWeight (%)” value ([1]; 100 mg/kg i.p. daily×5) was -18.6% and the “antitumor activity vs. MX-1” value ([1]; in words) was “impressive antitumor activity vs. MX-1”.

In the case of `CC[C@@]1(O)C(=O)OCc2c1cc1n(c2=O)Cc2c-1nc1ccccc1c2CO[C@@H]1C=C[C@H](O[C@H]2O[C@H](COC(C)=O)[C@@H](OC(C)=O)[C@H](OC(C)=O)[C@H]2OC(C)=O)[C@@H](COC(C)=O)O1` [HAR5, 7-[6-O-acetyl-4-O-(2,3,4,6-tetra-O-acetyl-α-D-glucopyranosyl)-2,3-dideoxy-α-D-erythro-hex-2-enopyranosyl]oxymethylcamptothecin], the “Tox Deaths” value ([1]; 100 mg/kg i.p. daily×5) was 0/10, the “animals with tumor growth inhibition (Shrinkage column)” value ([1]; 100 mg/kg i.p. daily×5) was 10/10 and the “ΔWeight (%)” value ([1]; 100 mg/kg i.p. daily×5) was “+7.4%”. The “Tumor growth inhibition rate (footnote 2, SR column)” value ([1]; 100 mg/kg i.p. daily×5, 10/10 animals) was 48%, the “mice with growth inhibition” value ([1]; 200 mg/kg) was 7 and the “mice with tumor shrinkage” value ([1]; 200 mg/kg) was 3. For the same compound, the “Shrinkage (animals)” value ([1]; 200 mg/kg i.p. daily×5) was 3/10, the “Tox Deaths” value ([1]; 200 mg/kg i.p. daily×5) was 0/10 and the “animals with tumor growth inhibition (Shrinkage column)” value ([1]; 200 mg/kg i.p. daily×5) was 7/10. For the same compound, the “ΔWeight (%)” value ([1]; 200 mg/kg i.p. daily×5) was “+5.3%”, the “SR(%) (Tumor Shrinkage Rate)” value ([1]; 200 mg/kg i.p. daily×5, 3/10 animals) was 73% and the “Tumor growth inhibition rate (footnote 2, SR column)” value ([1]; 200 mg/kg i.p. daily×5, 7/10 animals) was 82%.

For `CC[C@@]1(O)C(=O)OCc2c1cc1n(c2=O)Cc2c-1nc1ccccc1c2CO[C@@H]1C=C[C@H](OC(C)=O)[C@@H](COC(C)=O)O1` [HAR4, 7-[4,6-di-O-acetyl-2,3-dideoxy-α-D-erythro-hex-2-enopyranosyl]oxymethylcamptothecin], the MTD [4] was 20 mg/kg, the MTD (in vivo) was 10 mg/kg and the “complete disappearance of tumors (animals)” value ([1]; 10 mg/kg) was 2. For the same compound, the “Tox Deaths” value ([1]; 10 mg/kg i.p. daily×5) was 0/10, the “ΔWeight (%)” value ([1]; 10 mg/kg i.p. daily×5) was -10.2% and the “SR(%) (Tumor Shrinkage Rate)” value ([1]; 10 mg/kg i.p. daily×5, 8/10 animals) was 77%. For the same compound, the “Shrinkage (animals)” value ([1]; 10 mg/kg i.p. daily×5, partial (77%)) was 8/10, the “SR(%) (Tumor Shrinkage Rate)” value ([1]; 10 mg/kg, 2/10 animals) was 100% and the “Shrinkage (animals)” value ([1]; 10 mg/kg, complete (100%) shrinkage) was 2/10. The “mice with tumor shrinkage” value ([1]; 10 mg/kg, mean 77%) was 8, the “SR(%) (Tumor Shrinkage Rate)” value ([1]; 20 mg/kg i.p. daily×5) was 99% and the “Shrinkage (animals)” value ([1]; 20 mg/kg i.p. daily×5) was 1/10. For the same compound, the “Tox Deaths” value ([1]; 20 mg/kg i.p. daily×5) was 9/10, the toxicity ([1]; 20 mg/kg, in words) was “toxic” and the “antitumor activity vs. MX-1” value ([1]; in words) was “almost equivalent, outstanding activity”.
